Data: PMC5055185, “Dual pharmacological inhibition of glutathione and thioredoxin systems synergizes to kill colorectal carcinoma stem cells” (Cancer Medicine, 2016)
Where “and” joins values, the source holds several entries; their conditions need not be identical. Equal entries are not always repeated.

Columns and labels:
Type in all cases: cell-based, human
[1] = system: TIG‐111 dermal fibroblasts; experiment: cell survival (trypan blue exclusion, 5 days), TIG-111; conditions: for IC50: TIG111, cellular survival, 5 days; for Ratio of survived cells (Drugs treated/Untreated), Average / Ratio of survived cells (Drugs treated/Untreated), single passage points #: TIG-111
Method: (§1) Modified procedures of CTOS culture 16 were described elsewhere 10. […] The culture medium was serum‐free advanced DMEM/F‐12 (GIBCO, Waltham, MA) supplemented with FGF‐2 (10 ng/mL, ReproCell, Yokohama, Japan), penicillin ([…], Wako, Osaka, Japan), streptomycin (0.1 mg/mL,Wako), gentamicin (50 μg/mL, Wako), and fungizone (0.25 μg/mL, GIBCO). DLD‐1 and HCT116 CRC cell lines were purchased from JCRB Cell Bank (Osaka, Japan) and RIKEN BioResource Center (Ibaraki, Japan), respectively. In order to estimate pharmacological side effects against normal tissues, human diploid fibroblasts were purchased (JCRB Cell Bank) as model cells. The origins of the fibroblasts were as follows: OUMS‐36 (embryo), TIG‐3 (fetal lung), TIG‐111 (dermal fibroblasts [DFs] from individual), TIG‐119 (DFs from individual), and TIG‐102 (DFs from individual). Adult DFs were purchased from Kurabo (Osaka, Japan). CRC cell lines and fibroblasts were maintained under supplier‐recommended culture conditions. Since the culture conditions are different between fibroblasts and CTOSs, we need to be cautious about the interpretation of data (i.e., lateral comparison between them). […] Colorectal CTOSs display augmented survival through maintaining epithelial structure with E‐cadherin 16. On the other hand, the establishment of conventional cell lines (adherent culture) are much less efficient because constant cell division and autonomous survival are required for the procedure. When we choose CTOSs instead of cancer cell lines, we lose the equivalent condition (adherent culture) as a trade‐off.
(§2) Each drug's half‐maximal inhibitory concentration (IC50) was calculated based on live cell number ratios (drug treated/untreated × 100%) obtained from serial dilution of drug concentration. The length of drug exposure was 5 days. Each number of live cells was counted automatically by trypan blue exclusion (LUNA automated cell counter, Logos Biosystems, Anyang, South Korea). Cancer spheroids were dispersed with serial treatments (20 min each) of TrypLE™ and Accumax™. Thus, IC50 was determined based on cellular survival, but not on proliferation. We chose the survival index instead of the speed of growth because CTOSs in vitro show very slow proliferation (quiescence), which is one of the hallmarks of CSCs 2. The IC50 values of fibroblasts were accordingly determined based on cellular survival index during quiescence (by contact inhibition). […] To quantify the synergism of two distinct drugs, Combination Index (CI) was calculated 21. A CI value of about 1 (0.90–1.10) was defined as nearly additive and CI values more than (>1.10) and less than (<0.90) were defined as antagonism and synergism, respectively. IC50 and CI were determined using CompuSyn software (ComboSyn, Paramus, NK).

[2] = system: TIG‐119 dermal fibroblasts; experiment: cell survival (trypan blue exclusion, 5 days), TIG-119; conditions: for IC50: TIG119, cellular survival, 5 days
Method: as §1, §2

[3] = system: CTOS88 colorectal cancer tissue‐originated spheroids; experiment: cell survival (trypan blue exclusion, 5 days), CTOS88; conditions: for Ratio of survived cells (Drugs treated/Untreated), #3: passage point #3; for Ratio of survived cells (Drugs treated/Untreated), #4: passage point #4; for Ratio of survived cells (Drugs treated/Untreated), #5: passage point #5; for Ratio of survived cells (Drugs treated/Untreated), #1: passage point #1; for Ratio of survived cells (Drugs treated/Untreated), #6: passage point #6
Excerpt: (§3) All experimental procedures were approved by the animal facility at Dokkyo Medical University (ID: 951) and were described elsewhere 10. The existence of CSCs has been experimentally proven through serial xenotransplantation and tumorigenesis 2, 14. […] These subcutaneous tumors were again subjected to enzymatic dissociation and some of the tumor cells were subcutaneously transplanted into other mice. […] Seven cases (CTOS:40, 42, 68, 71, 76, 86, 88) were used for in vitro experiments.
as §1
(§4) Each drug's half‐maximal inhibitory concentration (IC50) was calculated based on live cell number ratios (drug treated/untreated × 100%) obtained from serial dilution of drug concentration. The length of drug exposure was 5 days. Each number of live cells was counted automatically by trypan blue exclusion (LUNA automated cell counter, Logos Biosystems, Anyang, South Korea). Cancer spheroids were dispersed with serial treatments (20 min each) of TrypLE™ and Accumax™. Thus, IC50 was determined based on cellular survival, but not on proliferation.

[4] = system: CTOS86 colorectal cancer tissue‐originated spheroids; experiment: cell survival (trypan blue exclusion, 5 days), CTOS86; conditions: for IC50: CTOS86, cellular survival, 5 days; for Ratio of survived cells (Drugs treated/Untreated), Average / Ratio of survived cells (Drugs treated/Untreated), single passage points #: CTOS#86
Excerpt: as §3, §1, §4

[5] = system: TIG‐102 dermal fibroblasts; experiment: cell survival (trypan blue exclusion, 5 days), TIG-102; conditions: for IC50: TIG102, cellular survival, 5 days; for Ratio of survived cells (Drugs treated/Untreated), Average / Ratio of survived cells (Drugs treated/Untreated), single passage points #: TIG-102
Method: as §1, §2

[6] = system: TIG‐3 embryonic fibroblasts (fetal lung); experiment: cell survival (trypan blue exclusion, 5 days), TIG-3; conditions: for IC50: TIG3, cellular survival, 5 days; for Ratio of survived cells (Drugs treated/Untreated), Average / Ratio of survived cells (Drugs treated/Untreated), single passage points #: TIG-3
Method: as §1, §2

[7] = system: OUMS‐36 embryonic fibroblasts; experiment: cell survival (live cell count by trypan blue exclusion, 5 days drug exposure), OUMS-36; conditions: for IC50: OUMS36, cellular survival, 5 days
Method: as §1, §2

[8] = calculated from average % survival

Compound: CC[PH](CC)(CC)[Au][S][C@@H]1O[C@H](COC(C)=O)[C@@H](OC(C)=O)[C@H](OC(C)=O)[C@H]1OC(C)=O [Aura, Auranofin]
- IC50 [1]: 1.75 µM
- Ratio of survived cells (Drugs treated/Untreated), Average ([1]; Aura 1 microM): 94.25%
- Ratio of survived cells (Drugs treated/Untreated), Average ([1]; Aura 2 microM): 41.75%
- Ratio of survived cells (Drugs treated/Untreated), Average ([1]; Aura 4 microM): 0%
- Ratio of survived cells (Drugs treated/Untreated), single passage points # ([1]; Aura 4 microM): 0%
- IC50 [2]: 1.17 µM
- Ratio of survived cells (Drugs treated/Untreated), Average ([2]; TIG-119, Aura 1 microM): 53.3333%
- Ratio of survived cells (Drugs treated/Untreated), Average ([2]; TIG-119, Aura 2 microM): 31.6667%
- Ratio of survived cells (Drugs treated/Untreated), Average ([2]; TIG-119, Aura 4 microM): 5%
- Ratio of survived cells (Drugs treated/Untreated), Average ([3]; Aura 1 microM): 78.3333%
- Ratio of survived cells (Drugs treated/Untreated), #3 ([3]; Aura 1 microM): 91%
- Ratio of survived cells (Drugs treated/Untreated), #4 ([3]; Aura 1 microM): 76%
- Ratio of survived cells (Drugs treated/Untreated), #5 ([3]; Aura 1 microM): 68%
- Ratio of survived cells (Drugs treated/Untreated), Average ([3]; Aura 2 microM): 67%
- Ratio of survived cells (Drugs treated/Untreated), #3 ([3]; Aura 2 microM): 72%
- Ratio of survived cells (Drugs treated/Untreated), #4 ([3]; Aura 2 microM): 61%
- Ratio of survived cells (Drugs treated/Untreated), #5 ([3]; Aura 2 microM): 68%
- Ratio of survived cells (Drugs treated/Untreated), Average ([3]; Aura 4 microM): 24.3333%
- Ratio of survived cells (Drugs treated/Untreated), #1 ([3]; Aura 4 microM): 33%
- Ratio of survived cells (Drugs treated/Untreated), #3 ([3]; Aura 4 microM): 23%
- Ratio of survived cells (Drugs treated/Untreated), #5 ([3]; Aura 4 microM): 17%
- IC50 [3, 8]: 2.34 µM
- IC50 ([3]; cellular survival, 5 days): 2.34 µM
- IC50 [4]: 3.02 µM
- Ratio of survived cells (Drugs treated/Untreated), Average ([4]; Aura 1 microM): 83.5%
- Ratio of survived cells (Drugs treated/Untreated), single passage points # ([4]; Aura 1 microM): 75% and 92%
- Ratio of survived cells (Drugs treated/Untreated), Average ([4]; Aura 2 microM): 64.5%
- Ratio of survived cells (Drugs treated/Untreated), single passage points # ([4]; Aura 2 microM): 67% and 62%
- IC50 [5]: 1.09 µM
- Ratio of survived cells (Drugs treated/Untreated), Average ([5]; Aura 1 microM): 48.5%
- Ratio of survived cells (Drugs treated/Untreated), single passage points # ([5]; Aura 1 microM): 44% and 53%
- Ratio of survived cells (Drugs treated/Untreated), Average ([5]; Aura 2 microM): 21%
- Ratio of survived cells (Drugs treated/Untreated), Average ([5]; Aura 4 microM): 0%
- Ratio of survived cells (Drugs treated/Untreated), single passage points # ([5]; Aura 4 microM): 0%
- IC50 [6]: 1.96 µM
- Ratio of survived cells (Drugs treated/Untreated), Average ([6]; Aura 1 microM): 83.1429%
- Ratio of survived cells (Drugs treated/Untreated), Average ([6]; Aura 2 microM): 61.4286%
- Ratio of survived cells (Drugs treated/Untreated), Average ([6]; Aura 4 microM): 9.571%
- IC50 [7]: 1.79 µM
- Ratio of survived cells (Drugs treated/Untreated), Average ([7]; OUMS-36, Aura 1 microM): 87.8571%
- Ratio of survived cells (Drugs treated/Untreated), single passage points # ([7]; OUMS-36, Aura 1 microM): 123% and 124% and 66% and 91% and 65% and 77% and 69%
- Ratio of survived cells (Drugs treated/Untreated), Average ([7]; OUMS-36, Aura 2 microM): 39.8571%
- Ratio of survived cells (Drugs treated/Untreated), Average ([7]; OUMS-36, Aura 4 microM): 6%

Compound: COc1cc(/C=C/C(=O)N2CCC=CC2=O)cc(OC)c1OC [Pipe, Piperlongumine]
- IC50 [1]: 8.04 µM
- Ratio of survived cells (Drugs treated/Untreated), Average ([1]; Pipe 2.5 microM): 110%
- Ratio of survived cells (Drugs treated/Untreated), single passage points # ([1]; Pipe 2.5 microM): 85% and 103% and 123% and 129%
- Ratio of survived cells (Drugs treated/Untreated), Average ([1]; Pipe 5 microM): 95%
- Ratio of survived cells (Drugs treated/Untreated), single passage points # ([1]; Pipe 5 microM): 69% and 82% and 125% and 104%
- Ratio of survived cells (Drugs treated/Untreated), Average ([1]; Pipe 10 microM): 19.75%
- IC50 [2]: 7.48 µM
- Ratio of survived cells (Drugs treated/Untreated), Average ([2]; TIG-119, Pipe 2.5 microM): 95.75%
- Ratio of survived cells (Drugs treated/Untreated), single passage points # ([2]; TIG-119, Pipe 2.5 microM): 83% and 121% and 96%
- Ratio of survived cells (Drugs treated/Untreated), Average ([2]; TIG-119, Pipe 5 microM): 80.75%
- Ratio of survived cells (Drugs treated/Untreated), Average ([2]; TIG-119, Pipe 10 microM): 27%
- Ratio of survived cells (Drugs treated/Untreated), Average ([3]; Pipe 2.5 microM): 75.3333%
- Ratio of survived cells (Drugs treated/Untreated), #3 ([3]; Pipe 2.5 microM): 56%
- Ratio of survived cells (Drugs treated/Untreated), #4 ([3]; Pipe 2.5 microM): 86%
- Ratio of survived cells (Drugs treated/Untreated), #5 ([3]; Pipe 2.5 microM): 84%
- Ratio of survived cells (Drugs treated/Untreated), Average ([3]; Pipe 5 microM): 44.8%
- Ratio of survived cells (Drugs treated/Untreated), #1 ([3]; Pipe 5 microM): 44%
- Ratio of survived cells (Drugs treated/Untreated), #3 ([3]; Pipe 5 microM): 33%
- Ratio of survived cells (Drugs treated/Untreated), #4 ([3]; Pipe 5 microM): 57%
- Ratio of survived cells (Drugs treated/Untreated), #5 ([3]; Pipe 5 microM): 29%
- Ratio of survived cells (Drugs treated/Untreated), #6 ([3]; Pipe 5 microM): 61%
- Ratio of survived cells (Drugs treated/Untreated), Average ([3]; Pipe 10 microM): 12.2%
- Ratio of survived cells (Drugs treated/Untreated), #1 ([3]; Pipe 10 microM): 19%
- Ratio of survived cells (Drugs treated/Untreated), #3 ([3]; Pipe 10 microM): 4%
- Ratio of survived cells (Drugs treated/Untreated), #4 ([3]; Pipe 10 microM): 16%
- Ratio of survived cells (Drugs treated/Untreated), #5 ([3]; Pipe 10 microM): 5%
- Ratio of survived cells (Drugs treated/Untreated), #6 ([3]; Pipe 10 microM): 17%
- IC50 [3, 8]: 4.25 µM
- IC50 ([3]; cellular survival, 5 days): 4.25 µM
- IC50 [4]: 7.12 µM
- Ratio of survived cells (Drugs treated/Untreated), Average ([4]; Pipe 2.5 microM): 79%
- Ratio of survived cells (Drugs treated/Untreated), single passage points # ([4]; Pipe 2.5 microM): 79%
- Ratio of survived cells (Drugs treated/Untreated), Average ([4]; Pipe 5 microM): 60%
- Ratio of survived cells (Drugs treated/Untreated), single passage points # ([4]; Pipe 5 microM): 69% and 51%
- Ratio of survived cells (Drugs treated/Untreated), Average ([4]; Pipe 10 microM): 39.5%
- Ratio of survived cells (Drugs treated/Untreated), single passage points # ([4]; Pipe 10 microM): 39% and 40%
- IC50 [5]: 7.89 µM
- Ratio of survived cells (Drugs treated/Untreated), Average ([5]; Pipe 2.5 microM): 105.667%
- Ratio of survived cells (Drugs treated/Untreated), single passage points # ([5]; Pipe 2.5 microM): 83% and 86% and 148%
- Ratio of survived cells (Drugs treated/Untreated), Average ([5]; Pipe 5 microM): 86.3333%
- Ratio of survived cells (Drugs treated/Untreated), single passage points # ([5]; Pipe 5 microM): 54% and 100% and 105%
- Ratio of survived cells (Drugs treated/Untreated), Average ([5]; Pipe 10 microM): 27.6667%
- IC50 [6]: 10.6 µM
- Ratio of survived cells (Drugs treated/Untreated), Average ([6]; Pipe 2.5 microM): 111.833%
- Ratio of survived cells (Drugs treated/Untreated), single passage points # ([6]; Pipe 2.5 microM): 107% and 154% and 95% and 81% and 127%
- Ratio of survived cells (Drugs treated/Untreated), Average ([6]; Pipe 5 microM): 79.5%
- Ratio of survived cells (Drugs treated/Untreated), single passage points # ([6]; Pipe 5 microM): 82% and 60% and 112% and 58% and 92% and 73%
- Ratio of survived cells (Drugs treated/Untreated), Average ([6]; Pipe 10 microM): 64%
- IC50 [7]: 9.36 µM
- Ratio of survived cells (Drugs treated/Untreated), Average ([7]; OUMS-36, Pipe 2.5 microM): 107.667%
- Ratio of survived cells (Drugs treated/Untreated), Average ([7]; OUMS-36, Pipe 5 microM): 84.6667%
- Ratio of survived cells (Drugs treated/Untreated), Average ([7]; OUMS-36, Pipe 10 microM): 49.1667%
